Data on twelve compounds can be found in patent US12370143B2, “Compound or salt thereof and lipid particles” (FUJIFILM Corporation, priority 2018, dated 2025).

Series [1] is described as follows: Particle size of nucleic acid lipid particles (Luc2-siRNA). Conditions: compound/DSPC/cholesterol/DMG-PEG2000 50/10/38.5/1.5. It counts as physicochemical. An outline of the steps:
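Lipid particles formed from oil phase (test lipid/DSPC/cholesterol/DMG-PEG2000, 50/10/38.5/1.5 molar, 20 mmol/L total in ethanol) micromixed 1:3 with Luc2-siRNA in pH 4 acetate buffer (19.7 μmol/L); siRNA/lipid 339 mol/mol, PBS-diluted and dialyzed. Size measured on ELS-Z2 dynamic light scattering.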

Series [2] in a line: Encapsulation rate of siRNA in nucleic acid lipid particles (Luc2-siRNA). Conditions: compound/DSPC/cholesterol/DMG-PEG2000 50/10/38.5/1.5. It counts as physicochemical. A digest of the protocol:
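Encapsulation rate was calculated as (total − outer-phase siRNA)/total ×100. Total siRNA was quantified spectrophotometrically after lipid-dissolving ethanol precipitation, and unencapsulated siRNA by RiboGreen in TE (ex 485/em 535 nm). The particles were test lipid/DSPC/cholesterol/DMG-PEG2000 at 50/10/38.5/1.5, formed by microfluidic mixing with Luc2-siRNA at pH 4 and dialyzed against PBS.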

The subject of series [3] is Factor VII (FVII) protein. Briefly: Measurement of Factor VII (FVII) protein in mouse plasma after FVII-siRNA lipid particles. It counts as in vivo, C57BL6/J mice. The following applies: 0.1 mg/kg caudal vein, plasma 24 hours after administration, PBS group = 100%. The procedure:
(§1) The Factor VII (FVII) protein was measured according to the method described in Nature Biotechnology (2010) 28, 172-176. C57BL6/J mice were randomly grouped (n=3). A dispersion liquid of nucleic acid lipid particles was prepared by the same method as that in <Preparation of nucleic acid lipid particles>, except that FVII-siRNA having the sequence described in Molecular Therapy (2009) 17, p. 878 was used instead of Luc-siRNA. The dispersion liquid was administered to the caudal vein of the mice at a dosage of 0.1 mg/kg. For comparison, PBS at the same volume was administered to the caudal vein of the mice. Twenty four hours after the administration, blood was collected from the caudal vena cava, thereby obtaining plasma. The amount of FVII protein was quantified using the obtained plasma and a Biophen FVII assay kit (Aniara).
The FVII amount in the plasma sample of each individual in the PBS administration group was regarded as 100%, and the ratio of the FVII amount in the plasma sample of each individual to 100% was adopted as a measurement value.

Series [4] in a line: Particle size of nucleic acid lipid particles (FVII-siRNA). It counts as physicochemical. The procedure: The compounds described in Table 2, L-α-distearoylphosphatidylcholine (trade name: COATSOME® MC-8080; NOF corporation), cholesterol (trade name: Choesterol HP; NIPPON FINE CHEMICAL CO., LTD.), and 1,2-dimyristoyl-rac-glycero-3-(methylpolyoxyethylene 2000) (hereinafter, called DMG-PEG2000) (trade name: SUNBRIGHT® GM-020; NOF corporation) were dissolved in ethanol at a molar ratio of 50/10/38.5/1.5 such that the total lipid concentration became 20 mmol/L, thereby obtaining an oil phase.
An aqueous nucleic acid solution obtained by dissolving 5 mg of Luc2-siRNA having the sequence described in Biomacromolecules (2013) 14, p. 3905 in 1 mL of sterile water was diluted with 10 mmol/L acetate buffer having a pH 4 such that the nucleic acid concentration became 19.7 μmol/L, thereby obtaining a water phase. Then, the water phase and the oil phase were mixed together by a micromixer (see JP5288254B) using a syringe pump such that the volume ratio of water phase:oil phase became 3:1 (final ratio of siRNA/lipid=339 (mol/mol)), and the mixed solution was diluted 2× with PBS, thereby obtaining a dispersion liquid of nucleic acid lipid particles. The dispersion liquid was dialyzed (Slide-A-Lyzer G2, MWCO: 10 kD, Thermo Fisher Scientific) using a phosphate buffered saline such that ethanol was removed, thereby obtaining nucleic acid lipid particles.
The particle size of the nucleic acid lipid particles was measured by the same method as that in <Preparation of lipid particles>.
as §1

Series [5] is described as follows: Nucleic acid encapsulation rate of nucleic acid lipid particles (FVII-siRNA). It counts as physicochemical. Here is the method:
A 3 mol/L aqueous sodium acetate solution (30 μL) and 9 μL of glycogen were added to 60 μL of the lipid particles retaining nucleic acids, and then 1.5 mL of ethanol was added thereto such that only the nucleic acids were precipitated while the lipid was dissolved. Then, the supernatant was removed by centrifugation. After the precipitates were air-dried for 15 minutes or longer, water was added thereto such that the precipitates were redissolved, and the concentration thereof was measured using Nanodrop NF1000 (Thermo Fisher Scientific), thereby quantifying the total nucleic acid concentration.
The nucleic acid concentration was quantified using a Quant-iT RiboGreen RNA Assay Kit (Thermo Fisher Scientific) according to the protocol. First, a 20×TE buffer included in the above kit was diluted with water, thereby obtaining a 1×TE buffer. TE represents Tris/EDTA (ethylenediaminetetraacetic acid). In order to quantify only the nucleic acid in the outer water phase, the dispersion liquid of lipid particles retaining nucleic acids was diluted 10,000× with the 1×TE buffer.
The 10,000× diluted dispersion liquid of lipid particles (100 μL) was put in a 96-well plate, then 100 μL of a RiboGreen reagent (reagent included in the Quanti-iT Ribogreen RNA Assay Kit described above) diluted 2000× with the 1×TE buffer was added to a sample, and fluorescence (excitation wavelength: 485 nm, fluorescence wavelength: 535 nm) was measured using a plate reader Infinit EF200 (TECAN), thereby quantifying the nucleic acid concentration in the outer water phase.
By using the total nucleic acid concentration obtained through the above steps and the quantified nucleic acid concentration in the outer water phase, the nucleic acid encapsulation rate of the nucleic acid lipid particles was calculated according to the following Equation. Nucleic acid encapsulation rate (%)=(total nucleic acid concentration−nucleic acid concentration in outer water phase)/total nucleic acid concentration×100 The results are shown in Table 2.
as §1

In the case of `CCCCCCCC(=O)OCCN(CCOC(=O)OC(CCCCCC)CCCC(=O)OCC(CCCC)CCCCCC)CCN(CC)CC` (stereo not drawn) [Example 108, 2-Butyloctyl 3-ethyl-12-hexyl-6-(2-(octanoyloxy)ethyl)-10-oxo-9,11-dioxa-3,6-diazahexadecan-16-oate], the “Particle size (nm)” value in series [1] is on record as 78.7 nm; in series [4] it was 78.8 nm. Moreover, the figures for the “Nucleic acid encapsulation rate” value in series [2] and in series [5] were 81% and 90%, respectively. In addition, the “Relative amount of FVII protein (%)” value in series [3] is on record as 3%.
Turning to `CCCCCCCCC(=O)OCCN(CCOC(=O)OC(CCCCCC)CCCCCCCCC(=O)OCC(CCCCC)CCCCC)CCN(CC)CC` (stereo not drawn) [Example 130, 2-Pentylheptyl 3-ethyl-12-hexyl-6-(2-(nonanoyloxy)ethyl)-10-oxo-9,11-dioxa-3,6-diazahenicosan-21-oate], the “Particle size (nm)” value in series [1] is 64.9 nm; in series [4] it was 74.1 nm. Besides, the figures for the “Nucleic acid encapsulation rate” value in series [2] and in series [5] were 66% and 68%, respectively. Also, in series [3], the “Relative amount of FVII protein (%)” value is 9%.
In the case of `CCCCCCCCC(=O)OCCN(CCOC(=O)OC(CCCCCC)CCCCCCCCC(=O)OCCC(CCCCC)CCCCC)CCN(CC)CC` (stereo not drawn) [Example 126, 3-Pentyloctyl 3-ethyl-12-hexyl-6-(2-(nonanoyloxy)ethyl)-10-oxo-9,11-dioxa-3,6-diazahenicosan-21-oate], the entries for the “Particle size (nm)” value in series [1] and in series [4] were 66.8 nm and 74.2 nm, respectively. For the same compound, the entries for the “Nucleic acid encapsulation rate” value in series [2] and in series [5] were 75% and 85%, respectively. For the same compound, the “Relative amount of FVII protein (%)” value in series [3] came to 9%.
For `CCCCCCC(CCCCCC)C(=O)OCCCCCCC(CCCCCCOC(=O)C(CCCCCC)CCCCCC)OC(=O)OCCN(CC)CCN(CC)CC` [Example 77, 7-(((2-((2-(Diethylamino)ethyl)(ethyl)amino)ethoxy)carbonyl)oxy)tridecane-1,13-diylbis(2-hexyloctanoate)] the same measures were 81.9 nm, 81.2 nm, 88%, 76% and 3%.
As for `CCCCC/C=C\C/C=C\CCCCCCCCC(CCCCCCCC/C=C\C/C=C\CCCCC)OC(=O)OCCCN(C)C` [Comparative Example 8, 3-(Dimethylamino)propyl((6Z,9Z,28Z,31Z)-heptatriaconta-6,9,28,31-tetraen-19-yl)carbonate, reference compound], the “Particle size (nm)” value is recorded as 63.1 nm in series [1] and 63.4 nm in series [4]. Moreover, the “Nucleic acid encapsulation rate” value is 59% in series [2] and 78% in series [5]. Also, the “Relative amount of FVII protein (%)” value in series [3] is listed as 58%.
For `CCCCC/C=C\C/C=C\CCCCCCCCC(CCCCCCCC/C=C\C/C=C\CCCCC)OC(=O)OCCN(CCCCCC)CCN(C)C` [Example 37, 2-((2-(Dimethylamino)ethyl)(hexyl)amino)ethyl((6Z,9Z,28Z,31Z)-heptatriaconta-6,9,28,31-tetraen-19-yl)carbonate] the same measures were 80.4 nm, 74.5 nm, 85%, 100% and 17%.
For `CCCCCCCCC(CCCCCC)COC(=O)CCCC(CCCCCC)OC(=O)OCCN(CCN(CC)CC)C(C)C` (stereo not drawn) [Example 83, 2-Hexyldecyl 3-ethyl-12-hexyl-6-isopropyl-10-oxo-9,11-dioxa-3,6-diazahexadecan-16-oate], in that order: 83.6 nm, 85.4 nm, 82%, 88% and 13%.
For `CCCCCCCCCC(=O)OCCN(CCOC(=O)OC(CCCCCC)CCCCCCCCC(=O)OCC(CCCCCC)CCCCCCCC)CCN(CC)CC` (stereo not drawn) [Example 98, 2-Hexyldecyl 6-(2-(decanoyloxy)ethyl)-3-ethyl-12-hexyl-10-oxo-9,11-dioxa-3,6-diazahenicosan-21-oate], in that order: 74.9 nm, 68.3 nm, 82%, 76% and 2%.
As to `CCCCC/C=C\C/C=C\CCCCCCCCC(CCCCCCCC/C=C\C/C=C\CCCCC)N(C)CCN(C)C` [Comparative Example 9, N1-((6Z,9Z,28Z,31Z)-heptatriaconta-6,9,28,31-tetraen-19-yl)-N1,N2,N2-trimethylethane-1,2-diamine, reference compound], the results for the “Particle size (nm)” value in series [1] and in series [4] were 58.4 nm and 60 nm, respectively. The entries for the “Nucleic acid encapsulation rate” value in series [2] and in series [5] were 84% and 71%, respectively. Also, the “Relative amount of FVII protein (%)” value in series [3] is 44%.
With `CCCCCCCC(=O)OCCN(CCOC(=O)OC(CCCCCC)CCCCCCCCC(=O)OCCC(CCCCC)CCCCC)CCN(CC)CC` (stereo not drawn) [Example 125, 3-Pentyloctyl 3-ethyl-12-hexyl-6-(2-(octanoyloxy)ethyl)-10-oxo-9,11-dioxa-3,6-diazahenicosan-21-oate], the “Particle size (nm)” value is reported as 73.8 nm in series [1] and 77.8 nm in series [4]. Besides, the “Nucleic acid encapsulation rate” value is listed as 76% in series [2] and 80% in series [5]. Moreover, in series [3], the “Relative amount of FVII protein (%)” value came to 5%.
For `CCCCCCCCC(CCCCCC)COC(=O)CCCCCCCCC(CCCCCC)OC(=O)OCCN(CCOC(=O)CCCCCCC)CCN(CC)CC` (stereo not drawn) [Example 99, 2-Hexyldecyl 3-ethyl-12-hexyl-6-(2-(octanoyloxy)ethyl)-10-oxo-9,11-dioxa-3,6-diazahenicosan-21-oate] the same measures were 68.9 nm, 72.3 nm, 81%, 79% and 3%.
As for `CCCCCCCCC(CCCCCC)COC(=O)CCCCCCCC(CCCCCC)OC(=O)OCCN(CCN(CC)CC)C(C)C` (stereo not drawn) [Example 117, 2-Hexyldecyl 3-ethyl-12-hexyl-6-isopropyl-10-oxo-9,11-dioxa-3,6-diazaicosan-20-oate], the “Particle size (nm)” value in series [1] came out at 77.3 nm; in series [4] it was 85.4 nm. Also, the “Nucleic acid encapsulation rate” value was 90% in series [2] and 89% in series [5]. Also, in series [3], the “Relative amount of FVII protein (%)” value was 12%.
